Assay results taken from patent US20230048132A1, “CYCLIN-DEPENDENT KINASE INHIBITORS” (SPV THERAPEUTICS INC., priority 2018, published 2023).

Tests used:
Test in all cases: CDK inhibition assay (microfluidic LabChip, IC50 format)
CDK2-CYCLINA = target: T1, CDK2-CYCLINA (Homo sapiens, UniProt P24941); format: biochemical; conditions: Table 3; purified enantiomers; read-out: CDK2-A (E1/E2)
T1 construct: purchased Millipore

CDK2-CYCLINE = target: T2, CDK2-CYCLINE (Homo sapiens, UniProt P24941); format: biochemical; conditions: Table 3; purified enantiomers; read-out: CDK2-E (E1/E2)
T2 construct: purchased Millipore

CDK6-CYCLIND3 = target: T3, CDK6-CYCLIND3 (Homo sapiens, UniProt Q00534); format: biochemical; conditions: Table 3; purified enantiomers; read-out: CDK6 (E1/E2)
T3 construct: purchased Carna
T3 sequence (Q00534 whole entry): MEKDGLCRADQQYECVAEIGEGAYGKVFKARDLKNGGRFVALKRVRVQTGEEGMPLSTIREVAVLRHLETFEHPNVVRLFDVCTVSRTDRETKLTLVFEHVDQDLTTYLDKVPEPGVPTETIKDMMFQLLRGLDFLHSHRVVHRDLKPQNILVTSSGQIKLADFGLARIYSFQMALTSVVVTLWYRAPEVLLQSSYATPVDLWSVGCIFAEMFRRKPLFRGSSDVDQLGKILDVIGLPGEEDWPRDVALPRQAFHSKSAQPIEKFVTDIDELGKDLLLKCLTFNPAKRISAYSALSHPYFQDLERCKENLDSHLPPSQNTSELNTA
T3 sequence (P30281 whole entry partner): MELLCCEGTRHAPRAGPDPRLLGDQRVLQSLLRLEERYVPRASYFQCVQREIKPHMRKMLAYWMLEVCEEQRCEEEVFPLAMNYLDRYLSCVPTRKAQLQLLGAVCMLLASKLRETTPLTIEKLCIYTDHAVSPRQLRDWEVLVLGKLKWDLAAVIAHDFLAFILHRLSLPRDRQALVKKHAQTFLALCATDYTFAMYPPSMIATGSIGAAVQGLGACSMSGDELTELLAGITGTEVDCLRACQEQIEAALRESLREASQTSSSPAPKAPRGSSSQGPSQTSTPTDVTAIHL

CDK9-CYCLINT1 = target: T4, CDK9-CYCLINT1 (Homo sapiens, UniProt P50750); format: biochemical; conditions: Table 3; purified enantiomers; read-out: CDK9-T (E1/E2)
T4 construct: purchased Carna
T4 sequence (P50750 whole entry): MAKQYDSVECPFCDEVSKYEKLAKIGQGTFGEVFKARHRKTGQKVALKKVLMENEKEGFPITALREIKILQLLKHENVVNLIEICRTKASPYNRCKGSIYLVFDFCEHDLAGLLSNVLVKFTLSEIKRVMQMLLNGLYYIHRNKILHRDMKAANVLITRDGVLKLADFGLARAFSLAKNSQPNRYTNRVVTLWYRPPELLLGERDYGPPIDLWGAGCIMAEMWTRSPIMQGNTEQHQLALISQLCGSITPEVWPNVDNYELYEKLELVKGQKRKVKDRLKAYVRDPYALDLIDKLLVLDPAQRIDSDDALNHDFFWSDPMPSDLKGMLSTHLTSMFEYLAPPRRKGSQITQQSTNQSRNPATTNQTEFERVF
T4 sequence (O60563 whole entry partner): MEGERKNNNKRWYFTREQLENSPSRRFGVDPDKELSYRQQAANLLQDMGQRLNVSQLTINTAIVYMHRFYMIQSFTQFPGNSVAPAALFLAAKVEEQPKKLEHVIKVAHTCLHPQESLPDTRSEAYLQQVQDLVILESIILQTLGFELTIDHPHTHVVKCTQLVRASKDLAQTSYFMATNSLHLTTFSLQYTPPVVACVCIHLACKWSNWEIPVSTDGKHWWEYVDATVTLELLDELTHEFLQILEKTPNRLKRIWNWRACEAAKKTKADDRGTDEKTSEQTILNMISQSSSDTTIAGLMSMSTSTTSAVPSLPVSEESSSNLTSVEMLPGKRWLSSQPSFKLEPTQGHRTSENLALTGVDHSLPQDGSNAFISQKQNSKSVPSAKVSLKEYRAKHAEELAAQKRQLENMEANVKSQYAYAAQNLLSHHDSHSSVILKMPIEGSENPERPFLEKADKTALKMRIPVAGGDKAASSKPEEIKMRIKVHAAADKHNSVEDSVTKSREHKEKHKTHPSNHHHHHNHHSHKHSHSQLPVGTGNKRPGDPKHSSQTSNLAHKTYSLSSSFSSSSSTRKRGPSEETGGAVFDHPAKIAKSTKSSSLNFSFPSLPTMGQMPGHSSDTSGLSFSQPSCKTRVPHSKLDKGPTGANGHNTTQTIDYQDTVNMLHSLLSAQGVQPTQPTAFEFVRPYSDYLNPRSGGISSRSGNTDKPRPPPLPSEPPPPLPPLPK

CDK4-CYCLIND1 = CDK4-CYCLIND1 (Homo sapiens, UniProt P11802); conditions: CDK4 (E1/E2), Table 3; purified enantiomers
CDK4-CYCLIND1, sequence (P11802 whole entry): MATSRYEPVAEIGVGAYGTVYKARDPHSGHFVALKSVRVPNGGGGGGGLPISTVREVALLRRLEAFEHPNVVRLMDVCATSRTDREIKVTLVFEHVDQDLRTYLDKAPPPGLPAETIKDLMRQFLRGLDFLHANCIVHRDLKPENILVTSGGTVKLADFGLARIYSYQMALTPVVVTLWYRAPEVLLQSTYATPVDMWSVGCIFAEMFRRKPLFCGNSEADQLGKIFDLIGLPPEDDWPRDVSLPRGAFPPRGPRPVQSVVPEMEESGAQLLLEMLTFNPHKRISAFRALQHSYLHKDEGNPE
CDK4-CYCLIND1, sequence (P24385 whole entry partner): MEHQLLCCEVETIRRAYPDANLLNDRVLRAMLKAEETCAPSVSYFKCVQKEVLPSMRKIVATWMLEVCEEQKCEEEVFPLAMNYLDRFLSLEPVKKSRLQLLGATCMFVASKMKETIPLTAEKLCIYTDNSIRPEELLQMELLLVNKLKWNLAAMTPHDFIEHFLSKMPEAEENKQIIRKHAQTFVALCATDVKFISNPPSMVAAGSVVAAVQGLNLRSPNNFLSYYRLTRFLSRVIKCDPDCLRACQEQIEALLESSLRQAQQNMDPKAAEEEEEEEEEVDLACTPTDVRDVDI

IC50 (CDK2-CYCLINA) [nM]	IC50 (CDK2-CYCLINE) [nM]	IC50 (CDK6-CYCLIND3) [nM]	IC50 (CDK9-CYCLINT1) [nM]	IC50 (CDK4-CYCLIND1) [nM]	SMILES
48.2	104	2.67	11.1	1.4	O=C1NCC[C@@]12Cc1cnc(Nc3ccc(N4CCNCC4)cc3)nc1N(C1CCCC1)C2=O [Example D56, (S)-8-cyclopentyl-2-((4-(piperazin-1-yl)phenyl)amino)-5,8-dihydro-7H-spiro[pyrido[2,3-d]pyrimidine-6,3′-pyrrolidine]-2′,7-dione]
> 100000	> 100000	2010	> 100000	1050	O=C1NCC[C@]12Cc1cnc(Nc3ccc(N4CCNCC4)cn3)nc1N(C1CCCC1)C2=O [Example D57, (R)-8-cyclopentyl-2-((5-(piperazin-1-yl)pyridin-2-yl)amino)-5,8-dihydro-7H-spiro[pyrido[2,3-d]pyrimidine-6,3′-pyrrolidine]-2′,7-dione]
3120	4240	3.26	198	2.96	O=C1NCC[C@@]12Cc1cnc(Nc3ccc(N4CCNCC4)cn3)nc1N(C1CCCC1)C2=O [Example D58, (S)-8-cyclopentyl-2-((5-(piperazin-1-yl)pyridin-2-yl)amino)-5,8-dihydro-7H-spiro[pyrido[2,3-d]pyrimidine-6,3′-pyrrolidine]-2′,7-dione]
